Results from patent US10155751B2, “Pyrazolyl-substituted heteroaryls and their use as medicaments” (Boehringer Ingelheim International GmbH, priority 2015, dated 2018).

How the values were obtained:
[1] = biological target: Recombinant human FLT3 (amino acids 564-958) (Homo sapiens (Human), UniProt P36888); experiment: FLT3 kinase test (ADP Glo); type: biochemical; conditions: read-out: FLT3 inhibition IC50-value (chapter 5.4)
Method: The activity of the FLT3 kinase protein was determined using the ADP Glo® Luminescence Kinase test (Promega; V9103X). In this homogeneous test the amount of ADP remaining after the kinase reaction is quantified by a luciferin-luciferase reaction using luminescence. The luminescence signal obtained correlates with the amount of ADP still present and thus correlates with the activity of the protein kinase.
The test compounds were dissolved in 100% DMSO at a concentration of 10 mM and diluted in DMSO to a concentration of 5 mM. Serial Dilution is done in 1:10 steps in 100% DMSO. All further dilutions of the substances were carried out with test buffer (50 mM Hepes, pH 7.5, 10 mM MgCl2, 1 mM EGTA, 0.01% Brij35, 0.1% BSA) until a concentration was reached which was 2.5 times above the final test concentration (final concentration of the compounds: 50 μM to 0.005 nM). […] FLT3 enzyme was diluted to 5 nM in the test buffer and 4 μl of this dilution were used in the kinase test (final concentration of FLT3=2 nM in a total volume of 10 μl). After 60 minutes incubation at room temperature 2 μl mixture of 2.5 mg/ml substrate (Poly-Glu/Tyr; Sigma #P0275) and 2.5 mM ultra-pure ATP (Promega #V915B) in test buffer were added to each well and the incubation was continued for a further 90 minutes at room temperature.
Positive controls are the reaction mixtures that contain no test substance; negative controls (blanks) are reaction mixtures that contain no kinase.
After 90 minutes, 10 μl ADP-Glo® solution (ADP-Glo Reagent #V912B Promega) (heated to room temperature) were added to each well and incubation was continued for a further 60. minutes. Then 20 μl Kinase detection mix (Detection Buffer #V913B Promega; Kinase Detection Substrate #V914B Promega) were added and incubated for 40 minutes at room temperature. The plates were read in Envision Luminescence Reader (Perkin-Elmer).
The output file of the reader is a csv file that contains the well number and measured RLU. For data evaluation and calculation, the measurement of the negative control was set as 0% ctrl and the measurement of the positive control was set as 100% ctrl. Based on this values the % value for the measurement of each substance concentration can be calculated using an Assay Explorer software (e.g. Accelrys). Normally, the % ctrl values calculated are between 0% and 100% values but may also occur outside these limits in individual cases based on variability or compound characteristics. The IC50 values were calculated from the % ctrl values using Assay Explorer software. Calculation: [y=(a−d)/(1+(x/c)^b)+d], a=low value, d=high value; x=conc. M; c=IC50 M; b=hill; y=% ctrl.

[2] = tested on: SYK dependent basophil degranulation (CD63 surface expression on basophils in whole blood); experiment: CD63-assay (cellular assay for SYK-inhibition) in whole blood; type: cell-based; conditions: whole blood, DNP/anti-DNP stimulated basophils; read-out: CD63 assay EC50-value (chapter 5.2)
Method: In this assay, IgE raised against dinitrophenol (DNP) is incubated in whole blood where it binds to the FcεR1 on basophils. […] CD63 normally resides on the intracellular granule membrane within basophils, which upon degranulation, is then expressed on the surface where it can be detected by flow cytometry. Surface expression of CD63 correlates extremely well with the release of histamine from basophils. The CD63 assay has previously been validated as a clinical target engagement biomarker in the Fostamatinib SYK program (Braselmann et al, J. Pharm. Exp. Therap. 319:998-1008, 2006). Heparinized whole blood is mixed gently (vortex mixer) and […] per test aliquoted into a 96 well plate. Anti-DNP (1 mg/ml) is diluted 1:100 with PBS/0.1% HSA to 10 μg/ml (final concentration: 1 μg/mL). Pre-dilute DNP/BSA (5 mg/ml) to a concentration of 60 ng/ml with washing solution. Compounds: […] Reagents are provided from the Basotest® kit. Incubate 10 μl of 10 μg/ml anti DNP and 10 μl of compound with 100 μl whole blood in a 37° C. pre-warmed water bath. After 30 minutes, 20 μl of STIMULATION BUFFER is added to the whole blood samples and vortexed gently. Incubate the samples for 10 min at 37° C. in a water bath. 100 μl of DNP/BSA is added per test to the whole blood. Add 100 μl of the WASHING SOLUTION to a further test tube as a negative control. Add 100 μl of DNP/BSA (final 30 ng/ml) in the compound tubes. All tubes are mixed once more. The samples are incubated for 20 min at 37° C. in a water bath. Stop degranulation by incubating the samples on ice for 5 min. Add 20 μl of STAINING REAGENT to each tube. Vortex and incubate the tubes for 20 min in an ice bath, covered to prevent exposure to light. The whole blood samples are lysed and fixed with 2 ml of pre-warmed (room temperature) 1×LYSING SOLUTION. Vortex and incubate for 10 min at room temperature. Spin down cells (5 min, 250×g, 4° C.). Discard the supernatant. Add 3 ml of WASHING SOLUTION to the tubes. Centrifuge the tubes (5 min, 250×g, 4° C.). Aspirate the supernatant. Add 200 μl WASHING SOLUTION to the cell pellet, vortex. Incubate the tubes in a covered ice bath until analysis. Cells are analysed by flow cytometry using the blue-green excitation light (488 nm argon-ion laser). Acquire data by using fluorescence triggering in the FL2 channel (PE) to gate on basophilic granulocytes expressing high amounts of IgE. This live gating reduces the amount of data and saves memory capacity. Acquire at least 500 basophils per sample. For data evaluation and calculation, the measurement of the negative control (unstimulated blood) was set as 100% control and the measurement of the positive control (DNP/anti-DNP stimulated blood) was set as 0% control. Based on these values the % value for the measurement of each substance concentration was calculated, a concentration-effect curve fitted and an EC50 value calculated using GraphPad Prism version 6.01 for Windows. The EC50 value was calculated using a nonlinear fitting (log(inhibitor) vs. response—variable slope). Normally, the % control values calculated are between 0% and 100% values but may also occur outside these limits in individual cases based on variability or compound characteristics.

Recombinant human FLT3 (amino acids 564-958), sequence (P36888 564-958): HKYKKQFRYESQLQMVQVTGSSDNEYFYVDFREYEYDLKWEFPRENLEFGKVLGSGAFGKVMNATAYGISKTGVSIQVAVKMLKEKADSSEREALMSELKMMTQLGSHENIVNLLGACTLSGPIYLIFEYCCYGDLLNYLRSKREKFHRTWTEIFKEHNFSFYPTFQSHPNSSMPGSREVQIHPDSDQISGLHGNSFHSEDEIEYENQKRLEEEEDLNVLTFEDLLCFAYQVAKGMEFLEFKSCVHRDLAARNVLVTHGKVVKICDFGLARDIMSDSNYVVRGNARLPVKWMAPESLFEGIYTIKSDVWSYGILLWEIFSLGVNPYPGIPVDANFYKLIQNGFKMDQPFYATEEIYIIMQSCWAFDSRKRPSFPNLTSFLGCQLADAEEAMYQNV

Structure (SMILES) | IC50 [1] | EC50 [2]
Cc1c2c(O[C@H](C)[C@H]3CNC(=O)C3)cc(-c3cnn([C@H]4CO[C@@H]5CCCO[C@@H]54)c3)cc2nn1C [Example 10, 4-(1-{6-[(R)-(3S,3aR,7aR)-1-(Hexahydro-furo[3,2-b]pyran-3-yl)-1H-pyrazol-4-yl]-2,3-dimethyl-2H-indazol-4-yloxy}-ethyl)-pyrrolidin-2-one] | 2020 nM | 65 nM
Cc1c2c(O[C@H](C)[C@H]3CNC(=O)C3)cc(-c3cnn(CC(C)C)c3)cc2nn1C [Example 19, (R)-4-{(R)-1-[6-(1-Isobutyl-1H-pyrazol-4-yl)-2,3-dimethyl-2H-indazol-4-yloxy]-ethyl}-pyrrolidin-2-one] | 4950 nM | 107 nM
C[C@@H](Oc1cc(-c2cnn(CC3CC3)c2)cc2nn(C)c(F)c12)[C@H]1CNC(=O)C1 [Example 6, (R)-4-{(R)-1-[6-(1-Cycloprop-ylmethyl-1H-pyrazol-4-yl)-3-fluoro-2-methyl-2H-indazol-4-yloxy]-ethyl}-pyrrolidin-2-one] | 3730 nM | 42 nM
Cc1c2c(O[C@H](C)[C@H]3CNC(=O)C3)cc(-c3cnn(CC4CC4)c3)cc2nn1C [Example 8, (R)-4-{(R)-1-[6-(1-Cyclopropylmethyl-1H-pyrazol-4-yl)-2,3-dimethyl-2H-indazol-4-yloxy]-ethyl}-pyrrolidin-2-one] | 2070 nM | 47 nM
C[C@@H](Oc1cc(-c2cnn(C3CC(C)(C)OC3(C)C)c2)cc2nn(C)c(F)c12)[C@H]1CNC(=O)C1 (stereo partly drawn) [Example 14, (R)-4-((R)-1-{3-Fluoro-2-methyl-6-[1-(2,2,5,5-tetramethyl-tetrahydro-furan-3-yl)-1H-pyrazol-4-yl]-2H-indazol-4-yloxy}-ethyl)-pyrrolidin-2-one] | 4050 nM | 76 nM
C[C@@H](Oc1cc(-c2cnn(C3CC3)c2)cc2nn(C)c(F)c12)[C@H]1CNC(=O)C1 [Example 5, (R)-4-{(R)-1-[6-(1-Cycloprop-yl-1H-pyrazol-4-yl)-3-fluoro-2-methyl-2H-indazol-4-yloxy]-ethyl}-pyrrolidin-2-one] | 3990 nM | 52 nM
Cc1c2c(O[C@H](C)[C@H]3CNC(=O)C3)cc(-c3cnn(C4CCC4)c3)cc2nn1C [Example 21, (R)-4-{(R)-1-[6-(1-Cyclobutyl-1H-pyrazol-4-yl)-2,3-dimethyl-2H-indazol-4-yloxy]-ethyl}-pyrrolidin-2-one] | 2210 nM | 76 nM
